Assay results from patent US10426850B2, “Collagen mimetic peptides for targeting collagen strands for in vitro and in vivo imaging and therapeutic use” (The Johns Hopkins University, priority 2011, dated 2019).
Entries after “also recorded” stand apart in the source; their conditions may differ.

What was measured:
[1] = target: T1, type I collagen films (fibrillar collagen) (Rattus norvegicus, UniProt P02454+P02466); test: Photo-triggered CMP binding assay on collagen films
T1 construct: Collagen solution (200 μL, 3.71 mg/mL, type I rat tail, BD Science); purchased BD Science; host or cells: rat tail
T1 sequence (P02454 152-1207 limits assumed): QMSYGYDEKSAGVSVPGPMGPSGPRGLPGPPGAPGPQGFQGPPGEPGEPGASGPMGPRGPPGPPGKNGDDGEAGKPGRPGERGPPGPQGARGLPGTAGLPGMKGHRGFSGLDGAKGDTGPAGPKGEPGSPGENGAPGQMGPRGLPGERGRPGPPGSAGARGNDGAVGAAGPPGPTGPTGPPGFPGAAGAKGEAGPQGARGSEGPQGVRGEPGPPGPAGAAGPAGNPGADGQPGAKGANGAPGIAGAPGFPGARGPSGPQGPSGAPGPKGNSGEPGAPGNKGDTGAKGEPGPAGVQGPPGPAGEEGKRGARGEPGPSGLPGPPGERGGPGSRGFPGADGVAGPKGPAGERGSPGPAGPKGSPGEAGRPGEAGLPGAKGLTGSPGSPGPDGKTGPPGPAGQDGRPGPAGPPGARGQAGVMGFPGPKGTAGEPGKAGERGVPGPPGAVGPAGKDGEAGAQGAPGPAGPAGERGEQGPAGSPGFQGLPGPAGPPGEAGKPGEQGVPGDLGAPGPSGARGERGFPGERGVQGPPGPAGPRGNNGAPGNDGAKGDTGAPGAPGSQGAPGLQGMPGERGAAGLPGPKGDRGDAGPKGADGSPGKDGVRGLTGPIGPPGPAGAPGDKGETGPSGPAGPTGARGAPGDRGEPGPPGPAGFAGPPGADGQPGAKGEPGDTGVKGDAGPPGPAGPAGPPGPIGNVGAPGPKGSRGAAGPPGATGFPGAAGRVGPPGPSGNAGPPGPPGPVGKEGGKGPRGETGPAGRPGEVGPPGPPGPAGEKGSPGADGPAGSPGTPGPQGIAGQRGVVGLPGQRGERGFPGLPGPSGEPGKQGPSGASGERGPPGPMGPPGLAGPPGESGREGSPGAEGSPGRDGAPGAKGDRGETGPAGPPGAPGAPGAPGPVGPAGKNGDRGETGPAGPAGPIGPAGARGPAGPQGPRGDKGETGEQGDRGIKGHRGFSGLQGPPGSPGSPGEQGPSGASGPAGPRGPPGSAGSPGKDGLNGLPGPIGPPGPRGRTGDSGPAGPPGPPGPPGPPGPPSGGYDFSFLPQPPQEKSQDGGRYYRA
T1 sequence (P02466 86-1125 limits assumed): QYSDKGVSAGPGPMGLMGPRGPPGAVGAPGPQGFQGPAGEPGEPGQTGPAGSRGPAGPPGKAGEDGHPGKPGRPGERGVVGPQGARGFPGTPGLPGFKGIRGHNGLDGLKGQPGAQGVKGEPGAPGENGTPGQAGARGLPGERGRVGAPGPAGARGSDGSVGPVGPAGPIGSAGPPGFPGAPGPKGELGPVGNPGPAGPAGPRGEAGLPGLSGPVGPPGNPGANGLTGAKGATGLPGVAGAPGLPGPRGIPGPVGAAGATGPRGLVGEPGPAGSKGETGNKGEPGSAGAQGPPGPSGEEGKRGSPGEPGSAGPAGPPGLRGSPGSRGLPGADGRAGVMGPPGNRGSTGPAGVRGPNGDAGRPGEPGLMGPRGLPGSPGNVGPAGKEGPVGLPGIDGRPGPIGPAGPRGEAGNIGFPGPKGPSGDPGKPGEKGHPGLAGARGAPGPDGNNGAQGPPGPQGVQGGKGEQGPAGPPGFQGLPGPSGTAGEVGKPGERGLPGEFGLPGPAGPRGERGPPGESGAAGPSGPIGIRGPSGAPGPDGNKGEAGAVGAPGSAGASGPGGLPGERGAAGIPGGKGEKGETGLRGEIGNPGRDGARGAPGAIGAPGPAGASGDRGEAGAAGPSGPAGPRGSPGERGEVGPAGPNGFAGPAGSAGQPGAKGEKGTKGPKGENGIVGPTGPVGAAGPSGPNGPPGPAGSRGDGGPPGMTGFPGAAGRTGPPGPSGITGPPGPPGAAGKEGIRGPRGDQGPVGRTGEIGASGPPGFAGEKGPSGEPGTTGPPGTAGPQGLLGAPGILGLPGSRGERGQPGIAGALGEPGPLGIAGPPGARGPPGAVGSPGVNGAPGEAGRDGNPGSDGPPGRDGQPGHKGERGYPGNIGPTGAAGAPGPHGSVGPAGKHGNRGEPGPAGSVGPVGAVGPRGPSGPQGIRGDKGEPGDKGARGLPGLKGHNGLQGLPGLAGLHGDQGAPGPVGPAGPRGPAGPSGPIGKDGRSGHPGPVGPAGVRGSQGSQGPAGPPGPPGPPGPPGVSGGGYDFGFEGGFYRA
Method: Collagen/gelatin binding assays. Collagen solution (200 μL, 3.71 mg/mL, type I rat tail, BD Science) in 0.02 N acetic acid was added to each well of a 96-well black/clear-bottom plate (Costar) and air-dried. To make gelatin films, the same collagen solution was denatured at 70° C. for 15 minutes before applying to the well. The dried films were neutralized and washed with 1×PBS buffer (pH 7.4) and deionized water. PBS solution of carboxyfluorescein-labeled caged CMP (40 μL, 50 μM, unless indicated otherwise) pre-equilibrated at 4° C. was added onto each reconstituted collagen or gelatin film and exposed to 365 nm UV light (10 mW/cm^2, from mercury arc lamp) for 11 minutes on ice. Wells for the UV-negative control groups were covered with aluminum foil to block UV exposure. After incubation at 4° C. for over 3 hours (unless indicated otherwise), the unbound materials were removed by rinsing with PBS buffer and deionized water. The films were allowed to dry in dark, after which the fluorescence (ex: 489 nm, em: 533 nm) was measured with a SpectraMax Gemini XPS microplate reader (Molecular Devices). Each binding experiment was done in triplicate.

[2] = Circular dichroism spectra and thermal melting of CMPs; type: physicochemical
Method: Circular dichroism spectroscopy. CD spectra were collected on JASCO 715 spectrophotometer equipped with a JASCO PTC-348 WI temperature controller and quartz cells (0.1 mm path length). CMP solutions (320 μL, 150 μM in 1×PBS) were stored at 4° C. for at least 24 hours before measurement. For photo-decaging, samples were exposed to 365 nm UV light for at least 30 minutes before the 4° C. incubation. The thermal melting studies were performed by measuring the ellipticity at 225 nm with 60° C./hr heating rate. Raw CD signal was normalized to mean residue ellipticity based on the peptide's length and concentration (Biopolymers 95:94-104 (2011)). Melting temperatures (Tm) were determined by fitting the mean residue ellipticity to a two-state model (Org Lett 8:4735-4738 (2006)). To measure the refolding kinetics, CMP solution was thermally denatured at 75° C. for 10 minutes in a cuvette and rapidly quenched to 25° C. in an ice-water bath, after which the CD signal at 225 nm was observed over time at 25° C. The CD spectra of intact and MMP-1 cleaved type I collagen (FIG. 12) was measured in 90 μg/mL protein solutions in 20 mM acetic acid buffer at 22° C. The 37° C. thermal stability profile (FIG. 2E, inset) was generated by monitoring the ellipticity at 222 nm immediately after transferring the cuvette to a temperature controlled cuvette holder pre-set to 37° C. The Tm values reported in this study are approximately 10° C. higher than the equilibrium Tm due to high heating rate (60° C./hr) (Biopolymers 73:682-688 (2004)).
Synthesis of fluorescently labeled collagen mimetic peptides. Non-caged CMPs were synthesized using Fmoc-mediated solid-phase chemistry by manual or automated synthesis as described previously.2,4 The caged NB(GPO)9 (SEQ ID NO: 12) was prepared by introducing Fmoc(N-o-nitrobenzyl)Gly-OH (synthesized according to Tatsu et al. 2,5) in the middle of the standard solid-phase peptide synthesis. The Hyp residue following the NBGly was conjugated using 9 molar equiv of Fmoc-Hyp(tBu)-OH, 8.8 molar equiv of PyBroP, and 20 molar equiv of DIPEA for over 24 hr to overcome the low reactivity caused by the steric hindrance of the NB cage group. The remaining sequence including the GGG spacer was completed by HBTU chemistry, followed by on-resin labeling with 6 molar equivalent of CF or TAMRA activated by 6 molar equivalent of PyAOP for over 24 hr. The full length fluorescent CMPs were cleaved from resin by treating the resin with TFA/TIS/H2O (95:2.5:2.5) for 3 hr and the cleaved peptide was purified by reverse phase HPLC on a Vydac C18 column using a linear gradient mixture of water (0.1% TFA) and acetonitrile (0.1% TFA) (5-45% acetonitrile gradient in 40 min). The purified peptides were analyzed by MALDI-TOF MS (FIG. 27): m/z calculated 2975.1 [M+Na+] for CF(GPO)9 (SEQ ID NO: 10), found 2975.0 [M+Na+]; m/z calculated 2975.1 [M+Na+] for ^SG9P9O9 (SEQ ID NO: 5), found 2973.5 [M+Na+]; m/z calculated 3110.2 [M+Na+] for CF^NB(GPO)9 (SEQ ID NO: 4), found 3109.4 [M+Na+]; m/z calculated 2975.1 [M+Na+] for CF(GPO)9 (SEQ ID NO: 10) [CF^NB(GPO)9 (SEQ ID NO: 4) after UV decaging], found 2974.1 [M+Na+]; m/z calculated 3142.3 [M+H+] for TAMRA-NB(GPO)9 (SEQ ID NO: 12), found 3141.4 [M+H+]; m/z calculated 3007.2 [M+H+] for TAMRA-(GPO)9 (SEQ ID NO: 15), [TAMRA-NB(GPO)9 (SEQ ID NO: 12) after decaging], found 3006.3 [M+H+]. CD spectra and CD melting curves of the labeled CMPs were acquired in PBS solutions using a JASCO 715 CD spectrophotometer. The solutions were incubated for at least 24 hours at 4° C. prior to CD experiment to ensure folding (FIG. 28).

CF-GGG-(GPO)4^NBGPO(GPO)4 [CF^NB(GPO)9]
collagen binding with and without UV exposure ([1]; 4° C., intact type I collagen films): collagen binding was observed only after exposing the sample to UV light
binding (fluorescence intensity of film) ([1]; caged, UV−): negligible
Tm (CD melting curve, triple helix) ([2]; after UV exposure (photo-decaged), heating rate 60° C./hr, Tm about 10° C. higher than equilibrium Tm): 75 °C
triple helical folding capacity (CD melting) ([2]; after UV exposure / photo-cleavage of NB cage): regain its full triple helical folding capacity
triple helical folding capacity (CD melting) ([2]; caged, before UV exposure): completely suppressed the CMP's ability to fold into a triple helix

CF-GGG-(GPO)9 [CF(GPO)9]
CMP binding lower by a factor of, compared to UV-triggered binding of CF^NB(GPO)9 ([1]; non-caged, triple helical, with UV exposure, 4° C.): 11
heat-induced binding level compared to photo-triggered caged CF^NB(GPO)9 ([1]; thermally melted at 75° C., non-caged): significantly elevated binding levels; also recorded: significantly higher binding level
melting temperature (Tm), CD melting curve ([2]; non-caged peptide in PBS, CD at 225 nm, 1° C./min heating rate): 75 °C

CF-GGG-PGOGPGPOPOGOGOPPGOOPGGOOPPG [CF^SG9P9O9, reference compound]
triple helical folding capacity (CD melting) ([2]; sequence-scrambled peptide): lack of triple helical structure
